Columns and labels:
Format in all cases: cell-based, human
MKN45 cells = assay: Immunofluorescence of γ-H2AX foci; details: Fig. 3B; for foci/cell, number of cells in class: cell count
Experimental: (§1) Cells (7 × 10^4) were seeded on 20 mm coverslips. […] Coverslips were incubated for 1 h with the primary antibody (Cell Signaling: H2AX Ser139 (#2595) and 53BP1 (#4937)) at room temperature, followed by a 1 h incubation with the appropriate secondary antibody. DNA was stained with DAPI. Fluorescence microscopy was performed using a NIKON Eclipse 90i. The image analysis was performed using the software program Nikon NIS-Elements and Image J.

AGS cells [1] = assay: Immunofluorescence of γ-H2AX and 53BP1 foci; details: for foci/cell, share of cells in class (Suma 100) / foci/cell, number of cells in class: Fig. 3B; for foci/cell, number of cells in class: cell count
Experimental: as §1

PANC1 cells = assay: Immunofluorescence of γ-H2AX and 53BP1 foci; details: for foci/cell, share of cells in class (Suma 100) / foci/cell, number of cells in class: PANC1, Fig. 3B; for foci/cell, number of cells in class: cell count
Experimental: as §1

AGS cells [2] = assay: Western blotting (p-p53, p-JNK, p-p38, p-ERK, p-CHK1/2, Mcl1, BID, BAX)
Experimental: Total protein extracts were obtained by adding the lysis buffer: 25 mM HEPES pH 7.5, 0.3 M NaCl, 1.5 mM MgCl2, 0.2 mM EDTA, 0.5 mM DTT, 20 mM β-glicerophosphate, 0.1 mM Na3VO4, 0.1% triton X-100; in the presence of protease inhibitors. Twenty μg of protein per sample were loaded and resolved using 8%, 10% or 15% SDS-PAGE polyacrylamide gels, and then transferred onto PVDF membranes, followed by immunodetection using appropriate antibodies, purchased from Santa Cruz Technology: Mcl-1 (sc-819), Cell Signaling Technology: BIM, BID, BAX (#9942), p-p38 (1:2000, #4631), p-p53^ser15 (#9284), p-ERK1/2 (1:2000, #9106), p-CHK1^ser345 and p-CHK2^ser19 (#9931), Promega Corporation-Spain: p-JNK (#V7932), or Sigma-Aldrich: α-tubulin (1:10000, #TP026). Unless indicated, all antibodies were diluted 1:1000. Secondary antibodies conjugated with horseradish peroxidase were purchased from BioRad, and chemiluminescence detection was performed using ECL (Santa Cruz Biotechnology).

SMILES: CC(C)[NH][Pt@SP1]([I])([I])[NH]C(C)C [I6, cis-[PtI2(isopropylamine)2]]
- foci/cell, share of cells in class (Suma 100) (MKN45 cells; class 16-30 foci/cell): 16.6667
- foci/cell, number of cells in class (MKN45 cells; class 16-30 foci/cell): 7
- foci/cell, share of cells in class (Suma 100) (MKN45 cells; class 31-45 foci/cell): 14.2857
- foci/cell, number of cells in class (MKN45 cells; class 31-45 foci/cell): 6
- foci/cell, share of cells in class (Suma 100) (MKN45 cells; class 46-60 foci/cell): 23.8095
- foci/cell, number of cells in class (MKN45 cells; class 46-60 foci/cell): 10
- foci/cell, share of cells in class (Suma 100) (MKN45 cells; class <15 foci/cell): 11.9048
- foci/cell, number of cells in class (MKN45 cells; class <15 foci/cell): 5
- foci/cell, share of cells in class (Suma 100) (MKN45 cells; class >61 foci/cell): 33.3333
- foci/cell, number of cells in class (MKN45 cells; class >61 foci/cell): 14
- foci/cell, share of cells in class (Suma 100) (AGS cells [1]; class 16-30 foci/cell): 23.3831
- foci/cell, number of cells in class (AGS cells [1]; class 16-30 foci/cell): 47
- foci/cell, share of cells in class (Suma 100) (AGS cells [1]; class 31-45 foci/cell): 26.3682
- foci/cell, number of cells in class (AGS cells [1]; class 31-45 foci/cell): 53
- foci/cell, share of cells in class (Suma 100) (AGS cells [1]; class 46-60 foci/cell): 13.9303
- foci/cell, number of cells in class (AGS cells [1]; class 46-60 foci/cell): 28
- foci/cell, share of cells in class (Suma 100) (AGS cells [1]; class <15 foci/cell): 29.3532
- foci/cell, number of cells in class (AGS cells [1]; class <15 foci/cell): 59
- foci/cell, share of cells in class (Suma 100) (AGS cells [1]; class >61 foci/cell): 6.965
- foci/cell, number of cells in class (AGS cells [1]; class >61 foci/cell): 14
- foci/cell: number of cells with 16-30 foci (AGS cells [1]; Fig. S4B, cell counts): 54
- foci/cell: number of cells with 31-45 foci (AGS cells [1]; Fig. S4B, cell counts): 20
- foci/cell: number of cells with 46-60 foci (AGS cells [1]; Fig. S4B, cell counts): 3
- foci/cell: number of cells with <15 foci (AGS cells [1]; Fig. S4B, cell counts): 39
- foci/cell: number of cells with >61 foci (AGS cells [1]; Fig. S4B, cell counts): 4
- foci/cell: share of cells with 16-30 foci (Suma 100) (AGS cells [1]; Fig. S4B, share of N): 45
- foci/cell: share of cells with 31-45 foci (Suma 100) (AGS cells [1]; Fig. S4B, share of N): 16.6667
- foci/cell: share of cells with 46-60 foci (Suma 100) (AGS cells [1]; Fig. S4B, share of N): 2.5
- foci/cell: share of cells with <15 foci (Suma 100) (AGS cells [1]; Fig. S4B, share of N): 32.5
- foci/cell: share of cells with >61 foci (Suma 100) (AGS cells [1]; Fig. S4B, share of N): 3.333
- foci/cell: number of cells with 16-30 foci (PANC1 cells; PANC1, Fig. S4B, cell counts): 43
- foci/cell: number of cells with 31-45 foci (PANC1 cells; PANC1, Fig. S4B, cell counts): 7
- foci/cell: number of cells with 46-60 foci (PANC1 cells; PANC1, Fig. S4B, cell counts): 2
- foci/cell: number of cells with <15 foci (PANC1 cells; PANC1, Fig. S4B, cell counts): 39
- foci/cell: number of cells with >61 foci (PANC1 cells; PANC1, Fig. S4B, cell counts): 5
- foci/cell: share of cells with 16-30 foci (Suma 100) (PANC1 cells; PANC1, Fig. S4B, share of N): 44.7917
- foci/cell: share of cells with 31-45 foci (Suma 100) (PANC1 cells; PANC1, Fig. S4B, share of N): 7.292
- foci/cell: share of cells with 46-60 foci (Suma 100) (PANC1 cells; PANC1, Fig. S4B, share of N): 2.083
- foci/cell: share of cells with <15 foci (Suma 100) (PANC1 cells; PANC1, Fig. S4B, share of N): 40.625
- foci/cell: share of cells with >61 foci (Suma 100) (PANC1 cells; PANC1, Fig. S4B, share of N): 5.208
- foci/cell, share of cells in class (Suma 100) (PANC1 cells; class 16-30 foci/cell): 41.9753
- foci/cell, number of cells in class (PANC1 cells; class 16-30 foci/cell): 34
- foci/cell, share of cells in class (Suma 100) (PANC1 cells; class 31-45 foci/cell): 18.5185
- foci/cell, number of cells in class (PANC1 cells; class 31-45 foci/cell): 15
- foci/cell, share of cells in class (Suma 100) (PANC1 cells; class 46-60 foci/cell): 6.173
- foci/cell, number of cells in class (PANC1 cells; class 46-60 foci/cell): 5
- foci/cell, share of cells in class (Suma 100) (PANC1 cells; class <15 foci/cell): 22.2222
- foci/cell, number of cells in class (PANC1 cells; class <15 foci/cell): 18
- foci/cell, share of cells in class (Suma 100) (PANC1 cells; class >61 foci/cell): 11.1111
- foci/cell, number of cells in class (PANC1 cells; class >61 foci/cell): 9
- activation of p53 (p-p53 western blot) (AGS cells [2]; IC50, 1, 3, 6 and 24 h): did not activate p53
- phosphorylation of CHK1/2 (DDR pathway, western blot) (AGS cells [2]; IC50, 1, 3, 6 or 24 h): did not activate
